Among the data in patent US8604029B2, “2-[(2-substituted)-indolizin-3-yl]-2-oxo-acetamide derivatives as antifungal agents” (F2G Ltd British Body Corporate, priority 2006, dated 2013) are MIC values, retold here.

Test in all cases: MIC measurement, YAG medium
Common to all, as to format: cell-based

One experiment deals with Aspergillus terreus. The note with it: Aspergillus terreus, MIC banded into grades, strain not named in head (AT4). Put shortly:
(§1)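 Spores from 5-day Sabouraud agar cultures were diluted in YAG medium (1% glucose, 1% ammonium chloride, 0.5% yeast extract) to a final inoculum of 1-2×10^4 cfu/mL, with drug at 50-0.05 mg/L. Plates were incubated 24 h at 35° C and read as OD 485 nm. MIC is the lowest concentration giving >70% inhibition versus drug-free control, in mg/L.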

A further experiment concerns Aspergillus terreus AT49. The note with it: Aspergillus terreus, MIC banded into grades, strain AT49, read-out: MIC A. terreus 49. An outline of the steps:
as §1

The test system of the next experiment is Aspergillus flavus. The note with it: Aspergillus flavus, MIC banded into grades, lowest concentration inhibiting growth by >70%. An outline of the steps:
as §1

In a further experiment the test system is Aspergillus niger. As to conditions: Aspergillus niger, MIC banded into grades. An outline of the steps: as §1
A further experiment deals with Aspergillus fumigatus. As to conditions: Aspergillus fumigatus; YAG medium; MIC banded into grades; strain AF293; read-out: MIC A. fumigatus. Put shortly: as §1
Experiment [1] relates to Aspergillus fumigatus AF210. As to conditions: Aspergillus fumigatus, MIC banded into grades, strain AF210, read-out: MIC A. fumigatus 210. An outline of the steps:
as §1

≈ marks a conversion by molar mass, not a printed value.

As usually defined, the MIC is the least concentration at which growth counts as inhibited. Take `O=C(Nc1ccc(N2CCN(Cc3ccco3)CC2)cc1)C(=O)c1c(-c2ccccc2)cc2ccccn12` [Example 31, 4-[4-(2-Furan-2-yl-methyl-piperazin-yl)-phenyl]-2-oxo-2-(2-phenyl-indolizin-3-yl)-acetamide]: the MIC (against Aspergillus terreus; with Aspergillus terreus AT49; against Aspergillus flavus; with Aspergillus niger; in the experiment with Aspergillus fumigatus; in experiment [1]) was below 1 µg/mL throughout.

Take `O=C(Nc1ccc(N2CCN(c3ccc(CN4CCOCC4)cn3)CC2)cc1)C(=O)c1c(-c2ccccc2)cc2ccccn12` [Example 77, N-{4-[4-(5-morpholin-4-yl-methyl-pyridin-2-yl)-piperazin-1-yl]-phenyl}-2-oxo-2-(2-phenyl-indolizin-3-yl)-acetamide]: the MIC (in the experiment with Aspergillus terreus; with Aspergillus terreus AT49; in the experiment with Aspergillus flavus; in the experiment with Aspergillus niger; in the experiment with Aspergillus fumigatus; in experiment [1]) was below 1 µg/mL throughout.

With `O=C(Nc1ccc(N2CCN(CCc3ccccn3)CC2)cc1)C(=O)c1c(-c2ccccc2)cc2ccccn12` [Example 36, 2-Oxo-2-(2-phenyl-indolizin-3-yl)-N-{4-[4-(2-pyridin-yl-ethyl)-perazin-1-yl]-phenyl}-acetamide], the MIC (against Aspergillus terreus; in the experiment on Aspergillus terreus AT49; against Aspergillus flavus; in the experiment on Aspergillus niger; in the experiment with Aspergillus fumigatus; in experiment [1]) was below 1 µg/mL in each case.

In the case of `CCn1ccnc1Cc1ccc(NC(=O)C(=O)c2c(-c3ccccc3C)cc3ccccn23)cc1` [Example 30, N-[4-(3-Ethyl-1H-imidazol-2ylmethyl)-phenyl]-2-oxo-2-(2-o-tolyl-indolizin-3yl)-acetamide], the MIC (against Aspergillus terreus; in the experiment with Aspergillus terreus AT49; in the experiment with Aspergillus flavus; against Aspergillus niger; in the experiment on Aspergillus fumigatus; in experiment [1]) was above 10 µg/mL throughout.

On to `CCOCCN(C1=NC(C)(C)CO1)c1ccc(NC(=O)C(=O)c2c(-c3ccccc3)cc3ccccn23)cc1` [Example 28], for which the MIC was 1 to 10 µg/mL (≈ 1.91 to 19.1 µM) in the experiment with Aspergillus terreus; 1 to 10 µg/mL (≈ 1.91 to 19.1 µM) in the experiment on Aspergillus terreus AT49; 1 to 10 µg/mL (≈ 1.91 to 19.1 µM) in the experiment with Aspergillus flavus; below 1 µg/mL in the experiment with Aspergillus niger; 1 to 10 µg/mL (≈ 1.91 to 19.1 µM) in the experiment with Aspergillus fumigatus; 1 to 10 µg/mL (≈ 1.91 to 19.1 µM) in experiment [1].

In the case of `O=C(Nc1ccc(N2CCN(c3ccccn3)CC2)cc1)C(=O)c1c(-c2ccccc2)cc2ccc(F)cn12` [Example 42, 2-(6-Fluoro-2-phenyl-indolizin-3-yl)-2-oxo-N-[4-(4-pyridin-2-yl-piperazin-1-yl)phenyl] acetamide], the MIC (against Aspergillus terreus; in the experiment on Aspergillus terreus AT49; in the experiment with Aspergillus flavus; against Aspergillus niger; with Aspergillus fumigatus; in experiment [1]) was below 1 µg/mL in each case.

As for `Cc1nc(C(C)C)cn1C(C)(C)c1cccc(NC(=O)C(=O)c2c(-c3ccccc3)cc3ccccn23)c1` [Example 25], the minimum inhibitory concentration (MIC) in the experiment on Aspergillus terreus is 1 to 10 µg/mL (≈ 1.98 to 19.8 µM); with Aspergillus terreus AT49, 1 to 10 µg/mL (≈ 1.98 to 19.8 µM); in the experiment with Aspergillus flavus, 1 to 10 µg/mL (≈ 1.98 to 19.8 µM); in the experiment on Aspergillus niger it was above 10 µg/mL; in the experiment with Aspergillus fumigatus, above 10 µg/mL; in experiment [1] it was above 10 µg/mL.

For the compound `O=C(Nc1ccc(N2CCN(Cc3cccs3)CC2)cc1)C(=O)c1c(-c2ccccc2)cc2ccccn12` [Example 33, 2-Oxo-2-(2-phenylindolizin-3-yl)-N-[4-(4-thiophen-2-ylmethylpiperazin-1-yl)phenyl] acetamide], the minimum inhibitory concentration (MIC) (with Aspergillus terreus; in the experiment with Aspergillus terreus AT49; with Aspergillus flavus; in the experiment with Aspergillus niger; in the experiment on Aspergillus fumigatus; in experiment [1]) was below 1 µg/mL each time.
